Data on ten molecules can be found in article PMC12624434 (ACS Pharmacology & Translational Science, 2025).

The structures appear in SMILES notation.

For the assay, the target named is T1, NRP1 b1 domain (Homo sapiens, UniProt O14786).
T1 construct: with the purified recombinant NRP1 b1 domain immobilized on the chip; inferred from Ni-NTA capture), TEV-cleavable (cleaved yes); made in house; host or cells: E. coli Rosetta (DE3)
T1 sequence (O14786 275-424 limits assumed): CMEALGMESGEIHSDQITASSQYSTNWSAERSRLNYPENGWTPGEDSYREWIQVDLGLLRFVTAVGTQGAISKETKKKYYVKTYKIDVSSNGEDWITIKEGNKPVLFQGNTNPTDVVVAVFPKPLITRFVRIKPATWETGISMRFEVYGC
In words: SPR binding to immobilized NRP1 b1 domain (Biacore 4000, CM5 chip). Conditions: steady-state binding, 25 °C; mean ± SD; read-out: SPR NRP1 b1 domain equilibrium KD. As for the experimental part: Surface Plasmon Resonance experiments were performed using a Biacore 4000 instrument at a constant temperature of 25 °C. Sensor chips, buffer stock solutions, and immobilization reagents were purchased from GE Healthcare. Recombinant human NRP1-b1 was produced in-house and recombinant human NRP1-ECD (extracellular domain) was purchased from ACRO (catalogue number NR1-H5A228). All other reagents were obtained from Sigma.
PBS containing 0.05% surfactant P20 was used as the running buffer during immobilization. NRP1-b1 was immobilized onto a CM5 chip using random amine coupling. The four flow cells were treated in the same way to optimize throughput. In summary, spots 1 and 2 were activated with the coupling reagents EDC and NHS for 10 min. NRP1-b1 at a concentration of 20 μg/mL in 10 mM sodium acetate pH 5 was injected onto the surface for 10 and 5 min in spots 1 and 2, respectively to generate surfaces with high and low density. […] The unmodified spot 3 was used as a reference.
PBS buffer containing 0.05% surfactant P20 and 3% DMSO was used as the running buffer and sample dilution buffer throughout these experiments. Dose–responses were obtained using a 2-fold sample dilution from 16 μM to 31 nM, using an injection time of 60 s. Surface regeneration between injections was not necessary, but a wash step with 1 M NaCl was included after injection of the highest concentration sample for each compound.
Binding curves were corrected for variations in DMSO concentration and normalized by molecular weight. Binding results to high and low-density surfaces were processed independently and the average ± SD is presented. K Ds reported are derived from steady-state binding responses and therefore correspond to the equilibrium binding affinity of the compounds.
A general note: SPR reads the build-up and loss of mass on a sensor chip optically.
As usually defined, the Kd is the constant that tells how readily two partners part at equilibrium. In the case of `Cn1cncc1CNCc1cccc(-c2cc(S(=O)(=O)Nc3ccsc3C(=O)N[C@@H](CCCNC(=N)N)C(=O)O)c3ncccc3c2)c1` [Compound 12a, (2S)-5-Guanidino-2-[[3-[[6-[3-[[(3-methylimidazol-4-yl)-methylamino]-methyl]-phenyl]-8-quinolyl]-sulfonylamino]-thiophene-2-carbonyl]-amino]-pentanoic Acid, Formic Acid], the Kd is 1440 ± 130 nM.

On to `CNCc1ccc(-c2cc(S(=O)(=O)Nc3ccsc3C(=O)N[C@@H](CCCNC(=N)N)C(=O)O)c3ncccc3c2)cc1` [Compound 12b, (2S)-5-Guanidino-2-[[3-[[6-[4-(methylaminomethyl)-phenyl]-8-quinolyl]-sulfonylamino]-thiophene-2-carbonyl]-amino]-pentanoic Acid, Formic Acid], for which the equilibrium dissociation constant (Kd) stood at 2270 ± 70 nM. Then `Cn1cncc1CNCc1ccc(-c2cc(S(=O)(=O)Nc3ccsc3C(=O)N[C@@H](CCCNC(=N)N)C(=O)O)c3ncccc3c2)cc1` [Compound 12c, (2S)-5-Guanidino-2-[[3-[[6-[4-[[(3-methylimidazol-4-yl)-methylamino]-methyl]-phenyl]-8-quinolyl]-sulfonylamino]-thiophene-2-carbonyl]-amino]-pentanoic Acid, Formic Acid], with 800 ± 140 nM. Consider `N=C(N)NCCC[C@H](NC(=O)c1sccc1NS(=O)(=O)c1cc(-c2cccc(CN)c2)cc2cccnc12)C(=O)O` [Compound 12d, (2S)-2-[[3-[[6-[3-(Aminomethyl)-phenyl]-8-quinolyl]-sulfonylamino]-thiophene-2-carbonyl]-amino]-5-guanidino-pentanoic Acid, Formic Acid], for which the Kd was determined as 650 ± 50 nM. The figure for `N=C(N)NCCC[C@H](NC(=O)c1sccc1NS(=O)(=O)c1cc(-c2ccc(CN)cc2)cc2cccnc12)C(=O)O` [Compound 12e, (2S)-2-[[3-[[6-[4-(Aminomethyl)-phenyl]-8-quinolyl]-sulfonylamino]-thiophene-2-carbonyl]-amino]-5-guanidino-pentanoic Acid, Formic Acid] is 920 ± 150 nM; for `N=C(N)NCCC[C@H](NC(=O)c1sccc1NS(=O)(=O)c1cc(-c2ccnc(N)c2)cc2cccnc12)C(=O)O` [Compound 12f, (2S)-2-[[3-[[6-(2-Amino-4-pyridyl)-8-quinolyl]-sulfonylamino]-thiophene-2-carbonyl]-amino]-5-guanidino-pentanoic Acid, Formic Acid] it is 1490 ± 200 nM. The figure for `N=C(N)NCCC[C@H](NC(=O)c1sccc1NS(=O)(=O)c1cc(NCc2csc(N)n2)cc2cccnc12)C(=O)O` [Compound 12i, (2S)-2-[[3-[[6-[(2-Aminothiazol-4-yl)-methylamino]-8-quinolyl]-sulfonylamino]-thiophene-2-carbonyl]-amino]-5-guanidino-pentanoic Acid, Formic Acid] is 1040 ± 120 nM; for `N=C(N)NCCC[C@H](NC(=O)c1sccc1NS(=O)(=O)c1cc(NCc2cccc(N3CCOCC3)n2)cc2cccnc12)C(=O)O` [Compound 12k, (2S)-5-Guanidino-2-[[3-[[6-[(6-morpholino-2-pyridyl)-methylamino]-8-quinolyl]-sulfonylamino]-thiophene-2-carbonyl]-amino]-pentanoic Acid] it is 1140 ± 120 nM. The figure for `N=C(N)NCCC[C@H](NC(=O)c1sccc1NS(=O)(=O)c1cc(NCc2ccc(N)nc2)cc2cccnc12)C(=O)O` [Compound 12l, (2S)-2-[[3-[[6-[(6-Amino-3-pyridyl)-methylamino]-8-quinolyl]-sulfonylamino]-thiophene-2-carbonyl]-amino]-5-guanidino-pentanoic Acid, Formic Acid] is 1230 ± 360 nM; for `CN(C)c1ncc(CNc2cc(S(=O)(=O)Nc3ccsc3C(=O)N[C@@H](CCCNC(=N)N)C(=O)O)c3ncccc3c2)cn1` [Compound 12m, (2S)-2-[[3-[[6-[[2-(Dimethylamino)-pyrimidin-5-yl]-methylamino]-8-quinolyl]-sulfonylamino]-thiophene-2-carbonyl]-amino]-5-guanidino-pentanoic Acid] it is 7710 ± 310 nM.
